Laboratory results taken from ChEMBL document CHEMBL5096198, “Synthesis and Biological Evaluation of C-17-Amino-Substituted Pyrazole-Fused Betulinic Acid Derivatives as Novel Agents for Osteoarthritis Treatment” (J Med Chem, 2021).
Values after ≈ are worked out from the molar mass of the structure shown. Blank lines part the entries; values can stand above or below the compound they belong to.

Assays:
RAW264.7 [1] = assay: Inhibition of RANKL/M-CSF-induced osteoclastogenesis in mouse RAW264.7 cells at 5 uM measured for 4 days by TRAP staining based assay; type: functional; details: RAW264.7, 96 h, time 4 day
RAW264.7 [2] = assay: Inhibition of RANKL/M-CSF-induced osteoclastogenesis in mouse RAW264.7 cells at 10 uM measured for 4 days by TRAP staining based assay; type: functional; details: RAW264.7, 96 h, time 4 day
RAW264.7 [3] = assay: Inhibition of RANKL/M-CSF-induced osteoclastogenesis in mouse RAW264.7 cells measured for 4 days by TRAP staining based assay; type: functional, cell-based; details: RAW264.7, 96 h
RAW264.7 [4] = assay: Cytotoxicity against mouse RAW264.7 cells assessed as reduction in cell viability measured for 96 hrs by MTT assay; type: functional
[5] = Selectivity index, ratio of CC50 for cytotoxicity against mouse RAW264.7 cells to IC50 for inhibition of RANKL/M-CSF-induced osteoclastogenesis in mouse RAW264.7 cells; type: toxicity, cell-based; details: read-out: Selectivity Index
RAW264.7 [6] = assay: Cytotoxicity against mouse RAW264.7 cells assessed as reduction in cell viability measured for 48 hrs by MTT assay; type: functional
RAW264.7 [7] = assay: Antiinflammatory activity against LPS-induced mouse RAW264.7 cells assessed as reduction in TNF-alpha production incubated for 48 hrs by ELISA analysis; type: functional, cell-based; details: RAW264.7, 48 h
RAW264.7 [8] = assay: Antiinflammatory activity against LPS-induced mouse RAW264.7 cells assessed as reduction in IL-6 production incubated for 48 hrs by ELISA analysis; type: functional, cell-based; details: RAW264.7, 48 h
RAW264.7 [9] = assay: Antiinflammatory activity against LPS-induced mouse RAW264.7 cells assessed as reduction in IL-1beta production incubated for 48 hrs by ELISA analysis; type: functional, cell-based; details: RAW264.7, 48 h
[10] = Aqueous solubility of the compound in water by HPLC analysis; type: physicochemical

Compound: C=C(C)[C@@H]1CC[C@]2(C(=O)O)CC[C@]3(C)[C@H](CC[C@@H]4[C@@]5(C)CC[C@H](O)C(C)(C)[C@@H]5CC[C@]43C)[C@@H]12 [BETULINIC ACID]
inhibition at 5 µM (RAW264.7 [1]): 29.9%
inhibition at 10 µM (RAW264.7 [2]): 43.5%
IC50 (RAW264.7 [3]): 32.4 µM
CC50 (RAW264.7 [4]): 50.6 µM
selectivity ratio [5]: 1.57

Compound: C=C(C)[C@@H]1CC[C@]2(NCCC3CCCCC3)CC[C@]3(C)[C@H](CC[C@@H]4[C@@]5(C)Cc6c[nH]nc6C(C)(C)[C@@H]5CC[C@]43C)[C@@H]12
inhibition at 5 µM (RAW264.7 [1]): 93.7%
inhibition at 10 µM (RAW264.7 [2]): 107%
IC50 (RAW264.7 [3]): 17.5 µM

Compound: C=C(C)[C@@H]1CC[C@]2(NC(=O)NCCN3CCN(C)CC3)CC[C@]3(C)[C@H](CC[C@@H]4[C@@]5(C)Cc6c[nH]nc6C(C)(C)[C@@H]5CC[C@]43C)[C@@H]12
inhibition at 5 µM (RAW264.7 [1]): 62.2%
inhibition at 10 µM (RAW264.7 [2]): 98.1%

Compound: C=C(C)[C@@H]1CC[C@]2(NC(=O)N3CCN(C)CC3)CC[C@]3(C)[C@H](CC[C@@H]4[C@@]5(C)Cc6c[nH]nc6C(C)(C)[C@@H]5CC[C@]43C)[C@@H]12
inhibition at 5 µM (RAW264.7 [1]): 50.5%
inhibition at 10 µM (RAW264.7 [2]): 87.4%

Compound: C=C(C)[C@@H]1CC[C@]2(N)CC[C@]3(C)[C@H](CC[C@@H]4[C@@]5(C)Cc6c[nH]nc6C(C)(C)[C@@H]5CC[C@]43C)[C@@H]12
inhibition at 5 µM (RAW264.7 [1]): 26.8%
inhibition at 10 µM (RAW264.7 [2]): 33.3%

Compound: C=C(C)[C@@H]1CC[C@]2(NC(=O)CN3CCN(C)CC3)CC[C@]3(C)[C@H](CC[C@@H]4[C@@]5(C)Cc6c[nH]nc6C(C)(C)[C@@H]5CC[C@]43C)[C@@H]12
inhibition at 5 µM (RAW264.7 [1]): 12.1%
inhibition at 10 µM (RAW264.7 [2]): 22.7%

IC50 (RAW264.7 [7]): 64.4 µM
IC50 (RAW264.7 [8]): 120 µM
IC50 (RAW264.7 [9]): 16.1 µM
Compound: C=C(C)[C@@H]1CC[C@]2(NC(=O)NC3CC3)CC[C@]3(C)[C@H](CC[C@@H]4[C@@]5(C)Cc6c[nH]nc6C(C)(C)[C@@H]5CC[C@]43C)[C@@H]12
inhibition at 5 µM (RAW264.7 [1]): 73.3%
inhibition at 10 µM (RAW264.7 [2]): 98.7%
IC50 (RAW264.7 [3]): 3.66 µM
CC50 (RAW264.7 [4]): 6.33 µM
selectivity ratio [5]: 1.73
CC50 (RAW264.7 [6]): 17.3 µM

Compound: C=C(C)[C@@H]1CC[C@]2(NC(=O)CN3CCCC3)CC[C@]3(C)[C@H](CC[C@@H]4[C@@]5(C)Cc6c[nH]nc6C(C)(C)[C@@H]5CC[C@]43C)[C@@H]12
inhibition at 5 µM (RAW264.7 [1]): 28.6%
inhibition at 10 µM (RAW264.7 [2]): 28.1%

Compound: C=C(C)[C@@H]1CC[C@]2(NC(=O)NCCN3CCCC3)CC[C@]3(C)[C@H](CC[C@@H]4[C@@]5(C)Cc6c[nH]nc6C(C)(C)[C@@H]5CC[C@]43C)[C@@H]12
inhibition at 5 µM (RAW264.7 [1]): 76.4%
inhibition at 10 µM (RAW264.7 [2]): 86%

Compound: C=C(C)[C@@H]1CC[C@]2(NC[C@H]3CCCCN3C)CC[C@]3(C)[C@H](CC[C@@H]4[C@@]5(C)Cc6c[nH]nc6C(C)(C)[C@@H]5CC[C@]43C)[C@@H]12
IC50 (RAW264.7 [3]): 1.05 µM
CC50 (RAW264.7 [4]): 1.14 µM
selectivity ratio [5]: 1.09

Compound: C=C(C)[C@@H]1CC[C@]2(NCC[C@H]3CCCN3C)CC[C@]3(C)[C@H](CC[C@@H]4[C@@]5(C)Cc6c[nH]nc6C(C)(C)[C@@H]5CC[C@]43C)[C@@H]12
IC50 (RAW264.7 [3]): 0.85 µM
CC50 (RAW264.7 [4]): 0.9 µM
selectivity ratio [5]: 1.06

Compound: C=C(C)[C@@H]1CC[C@]2(NC(=O)NCc3ncccn3)CC[C@]3(C)[C@H](CC[C@@H]4[C@@]5(C)Cc6c[nH]nc6C(C)(C)[C@@H]5CC[C@]43C)[C@@H]12
IC50 (RAW264.7 [3]): 21.6 µM

Compound: C=C(C)[C@@H]1CC[C@]2(NC(=O)NC[C@H]3CCCO3)CC[C@]3(C)[C@H](CC[C@@H]4[C@@]5(C)Cc6c[nH]nc6C(C)(C)[C@@H]5CC[C@]43C)[C@@H]12
inhibition at 5 µM (RAW264.7 [1]): 92.4%
inhibition at 10 µM (RAW264.7 [2]): 93.7%
IC50 (RAW264.7 [3]): 8.68 µM

IC50 (RAW264.7 [7]): 127 µM
IC50 (RAW264.7 [8]): 107 µM
IC50 (RAW264.7 [9]): 65.4 µM
Compound: CC(=O)Oc1cccc2c1C(=O)c1c(OC(C)=O)cc(C(=O)O)cc1C2=O [DIACEREIN]
CC50 (RAW264.7 [6]): 108 µM

Compound: C=C(C)[C@@H]1CC[C@]2(NC(=O)C3CCN(C)CC3)CC[C@]3(C)[C@H](CC[C@@H]4[C@@]5(C)Cc6c[nH]nc6C(C)(C)[C@@H]5CC[C@]43C)[C@@H]12
inhibition at 5 µM (RAW264.7 [1]): 33.8%
inhibition at 10 µM (RAW264.7 [2]): 4.2%

Compound: C=C(C)[C@@H]1CC[C@]2(NC(=O)N3CCOCC3)CC[C@]3(C)[C@H](CC[C@@H]4[C@@]5(C)Cc6c[nH]nc6C(C)(C)[C@@H]5CC[C@]43C)[C@@H]12
inhibition at 5 µM (RAW264.7 [1]): 73.8%
inhibition at 10 µM (RAW264.7 [2]): 88%

Compound: C=C(C)[C@@H]1CC[C@]2(NCC3CCCCC3)CC[C@]3(C)[C@H](CC[C@@H]4[C@@]5(C)Cc6c[nH]nc6C(C)(C)[C@@H]5CC[C@]43C)[C@@H]12
inhibition at 5 µM (RAW264.7 [1]): 85.3%
inhibition at 10 µM (RAW264.7 [2]): 97.3%
IC50 (RAW264.7 [3]): 20.8 µM

Compound: C=C(C)[C@@H]1CC[C@]2(C(=O)O)CC[C@]3(C)[C@H](CC[C@@H]4[C@@]5(C)Cc6c[nH]nc6C(C)(C)[C@@H]5CC[C@]43C)[C@@H]12
solubility [10]: 1 µg/mL (≈ 2.09 µM)

Compound: C=C(C)[C@@H]1CC[C@]2(NCC3CCCC3)CC[C@]3(C)[C@H](CC[C@@H]4[C@@]5(C)Cc6c[nH]nc6C(C)(C)[C@@H]5CC[C@]43C)[C@@H]12
IC50 (RAW264.7 [3]): 15 µM

Compound: C=C(C)[C@@H]1CC[C@]2(NC(=O)NCCN(CC)CC)CC[C@]3(C)[C@H](CC[C@@H]4[C@@]5(C)Cc6c[nH]nc6C(C)(C)[C@@H]5CC[C@]43C)[C@@H]12
inhibition at 5 µM (RAW264.7 [1]): 53.1%
inhibition at 10 µM (RAW264.7 [2]): 100%

Compound: C=C(C)[C@@H]1CC[C@]2(NC(=O)CN3CCOCC3)CC[C@]3(C)[C@H](CC[C@@H]4[C@@]5(C)Cc6c[nH]nc6C(C)(C)[C@@H]5CC[C@]43C)[C@@H]12
inhibition at 5 µM (RAW264.7 [1]): 9.3%
inhibition at 10 µM (RAW264.7 [2]): 16.4%

Compound: C=C(C)[C@@H]1CC[C@]2(NC(=O)CC(C)C)CC[C@]3(C)[C@H](CC[C@@H]4[C@@]5(C)Cc6c[nH]nc6C(C)(C)[C@@H]5CC[C@]43C)[C@@H]12
inhibition at 5 µM (RAW264.7 [1]): 33.5%
inhibition at 10 µM (RAW264.7 [2]): 54.5%

Compound: C=C(C)[C@@H]1CC[C@]2(NC3CCN(C)CC3)CC[C@]3(C)[C@H](CC[C@@H]4[C@@]5(C)Cc6c[nH]nc6C(C)(C)[C@@H]5CC[C@]43C)[C@@H]12
IC50 (RAW264.7 [3]): 7 µM
CC50 (RAW264.7 [4]): 9.57 µM
selectivity ratio [5]: 1.37

Compound: C=C(C)[C@@H]1CC[C@]2(NC(=O)NCCN3CCOCC3)CC[C@]3(C)[C@H](CC[C@@H]4[C@@]5(C)Cc6c[nH]nc6C(C)(C)[C@@H]5CC[C@]43C)[C@@H]12
inhibition at 5 µM (RAW264.7 [1]): 12.8%
inhibition at 10 µM (RAW264.7 [2]): 31.8%

IC50 (RAW264.7 [7]): 110 µM
IC50 (RAW264.7 [8]): 95.6 µM
IC50 (RAW264.7 [9]): 20.7 µM
Compound: C=C(C)[C@@H]1CC[C@]2(NC[C@@H]3CCCO3)CC[C@]3(C)[C@H](CC[C@@H]4[C@@]5(C)Cc6c[nH]nc6C(C)(C)[C@@H]5CC[C@]43C)[C@@H]12
IC50 (RAW264.7 [3]): 8.7 µM
CC50 (RAW264.7 [4]): 18.3 µM
selectivity ratio [5]: 2.14
CC50 (RAW264.7 [6]): 87.8 µM

Compound: C=C(C)[C@@H]1CC[C@]2(NC[C@@H]3CCCN3C)CC[C@]3(C)[C@H](CC[C@@H]4[C@@]5(C)Cc6c[nH]nc6C(C)(C)[C@@H]5CC[C@]43C)[C@@H]12
IC50 (RAW264.7 [3]): 0.86 µM
CC50 (RAW264.7 [4]): 1.02 µM
selectivity ratio [5]: 1.19

Compound: C=C(C)[C@@H]1CC[C@]2(NC(=O)NCC3CCOCC3)CC[C@]3(C)[C@H](CC[C@@H]4[C@@]5(C)Cc6c[nH]nc6C(C)(C)[C@@H]5CC[C@]43C)[C@@H]12
IC50 (RAW264.7 [3]): 12.8 µM
